Data reported in ChEMBL document CHEMBL1122870, “Synthesis and LTD4 antagonist activity of 2-norleukotriene analogues” (1985).
Activity calls are given as the source filed them. No cut-off for these calls is given here.

Experiments:
Assay type in all cases: functional
[1] = organism: Cavia porcellus; assay: Evaluated for antagonist activity on Guinea Pig Tracheal Spiral Strips relative to Kb= 0.1 uM for FPL; Partial agonist; details: Trachea, filed as partial agonist
[2] = organism: Cavia porcellus; assay: Evaluated for antagonist activity on Guinea Pig Tracheal Spiral Strips relative to Kb= 0.1 uM for FPL; details: Trachea
[3] = organism: Cavia porcellus; assay: Evaluated for antagonist activity on Guinea Pig Tracheal Spiral Strips relative to Kb= 0.1 uM for FPL; Inactive (neither agonist nor antagonist activity observed); details: Trachea
[4] = organism: Cavia porcellus; assay: Evaluated for antagonist activity on Guinea Pig Tracheal Spiral Strips relative to Kb= 0.1 uM for FPL; partial agonist; details: Trachea
[5] = organism: Cavia porcellus; assay: Evaluated for antagonist activity on Guinea Pig Tracheal Spiral Strips relative to Kb= 8.1 uM Vs LTE4; details: Trachea

SMILES | Kb [2] [µM] | further results
CCCCCCCCCCCC/C=C\[C@H](SC[C@H](N)C(=O)NCCO)[C@H](O)CCCO |  | Kb [1]: Partial agonist
CCCCCCCCCCCC/C=C\[C@H](SC[C@H](N)C(=O)NCC(=O)O)[C@H](O)CCC(=O)O | 6.3 | 
CCCCCCCCCCCC/C=C\[C@H](SC[C@H](N)C(=O)NCC(=O)O)[C@H](O)CCC(N)=O | 7.2 | 
CCCCCCC/C=C\[C@H](SC[C@H](N)C(=O)NCC(=O)O)[C@H](O)CCC(=O)O |  | Kb [3]: inactive
CCCCCCCCCCCC/C=C/[C@H](SC[C@H](N)C(=O)NCC(=O)O)[C@H](O)CCC(=O)O |  | Kb [4]: 20 µM
CCCCCCCCCCCC/C=C\[C@@H](SC[C@H](N)C(=O)NCC(=O)O)[C@@H](O)CCC(=O)O | 10 | 
CCCCCCCCCCCC/C=C/[C@H](SC[C@H](N)C(=O)NCC(=O)O)[C@@H](O)CCC(=O)O |  | Kb [4]: 40 µM
CCCCCCCCCCCC/C=C\[C@H](SC[C@H](N)C(=O)NCC(=O)O)[C@H](O)CCCO | 14 | 
CCCCCCCCCCCC/C=C\[C@@H](SC[C@H](N)C(=O)O)[C@@H](O)CCC(=O)O | 3.4 | 
CCCCCCCCCCCC/C=C\[C@H](SC[C@H](N)C(=O)NCC(N)=O)[C@H](O)CCC(=O)O | 3.5 | 
CCCCCCCCCCCC/C=C\[C@H](SC[C@H](N)C(=O)O)[C@H](O)CCC(=O)O |  | Kb [5]: 14 µM
CCCCCCCCCCCCCCCCC/C=C\[C@H](SC[C@H](N)C(=O)NCC(=O)O)[C@H](O)CCC(=O)O |  | Kb [3]: inactive
